Test systems include SNB-78; XF498; LXFL 529; DLD-1; M19-MEL; DMS-114; DMS-273; RXF 631; HOP-18.
Common to all, as to assay: DTP human tumour cell line panel, 48 h

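Results reflect a 48-hour exposure of cells in 96-well plates to compound at five concentrations. GI50: concentration for 50% inhibition of growth.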 Active and inactive are the calls of the source. No stated cut-off is given here; in the data, active = GI50 up to about 1.1 µM and inactive = higher.

For `COc1ccc(C=C2C(=O)OC(C)(C)OC2=O)cc1OC`, the GI50 in the assay on SNB-78, with XF498, in the assay on LXFL 529, in the assay with DLD-1, in the assay on M19-MEL and in the assay on DMS-114 was > 100 µM (inactive) each time.
`Cc1ccc(NC(=O)C(=O)Cc2nc3ccccc3o2)c(C)c1`: the GI50 in the assay on SNB-78, in the assay on XF498, with LXFL 529, in the assay with DLD-1, with M19-MEL and in the assay on DMS-114 was > 100 µM (inactive) each time. Besides, the GI50 in the assay with DMS-273 and in the assay on RXF 631 was > 100 µM (inactive) throughout.
With `O=[PH](O)c1ccsc1`, the GI50 in the assay on LXFL 529, with DLD-1, in the assay with M19-MEL, in the assay on DMS-114, in the assay with DMS-273 and in the assay with RXF 631 was > 100 µM (inactive) in each case. In addition, in the assay with HOP-18, the GI50 is > 100 µM (inactive).
For `COc1cc(C(C#N)NNc2nc(C)cc(O)n2)cc(OC)c1OC` (configuration not stated), the GI50 with SNB-78, in the assay on LXFL 529, in the assay with DLD-1, in the assay with M19-MEL, with DMS-273 and in the assay on HOP-18 was > 100 µM (inactive) in each case.
As for `COc1cccc2ccc3c(c12)C(=O)OC31CCc2c(C)cccc21` (configuration not stated), the GI50 is 39.1 µM (inactive) in the assay on SNB-78; 14.4 µM (inactive) in the assay with XF498; 15 µM (inactive) in the assay with LXFL 529; 8.79 µM (inactive) in the assay with DLD-1; 15.5 µM (inactive) in the assay with M19-MEL; 8.67 µM (inactive) in the assay on DMS-114. In addition, the GI50 is 6.81 µM (inactive) with DMS-273 and > 31.6 µM (inactive) in the assay on HOP-18.
With `Nc1ccc(C(=O)N/C(=C\c2cccc([N+](=O)[O-])c2)c2nc3c(O)nc(S)nc3[nH]2)cc1`, the GI50 with SNB-78 is 39.3 µM (inactive); in the assay on XF498 it was 16.9 µM (inactive); in the assay with LXFL 529 it was > 57.7 µM (inactive); in the assay with DLD-1 it was > 100 µM (inactive); in the assay on M19-MEL it was > 100 µM (inactive); in the assay with DMS-114, > 86.3 µM (inactive). In addition, in the assay with RXF 631, the GI50 is 37.2 µM (inactive).
For the compound `O=C1CCC2CCc3cccc4oc1c2c34` (configuration not stated), the GI50 in the assay with SNB-78, with XF498, in the assay on LXFL 529, in the assay on DLD-1, in the assay with M19-MEL and with DMS-114 was > 100 µM (inactive) in each case. The GI50 in the assay with DMS-273 and with HOP-18 was > 100 µM (inactive) throughout.
`C=C1C(C(=O)O)C1C(=O)O` (configuration not stated): the GI50 in the assay with SNB-78, in the assay with XF498, in the assay on DLD-1, with M19-MEL, in the assay on DMS-114 and with DMS-273 was > 100 µM (inactive) throughout. Further, the GI50 in the assay with HOP-18 is > 100 µM (inactive).
As for `CCOc1cc(/C=C/C=C/C=C/c2ccc(N(C)C)cc2)[s+]c2ccccc12`, the GI50 is 22.5 µM (inactive) in the assay with SNB-78; 23.8 µM (inactive) with XF498; 16.3 µM (inactive) in the assay with LXFL 529; 25 µM (inactive) with M19-MEL; 5.61 µM (inactive) with DMS-114; 73.8 µM (inactive) with DMS-273. Moreover, the GI50 with RXF 631 is > 100 µM (inactive).
For the compound `O=C(CN(c1ccccc1)c1ccccc1)n1nnc2ccccc21`, the GI50 in the assay with SNB-78 was 47.4 µM (inactive); in the assay with LXFL 529, 70.6 µM (inactive); with DLD-1 it was 76.2 µM (inactive); in the assay with M19-MEL it was 20.6 µM (inactive); in the assay on DMS-114, 29.3 µM (inactive); in the assay on DMS-273, 39.9 µM (inactive).
`O=C1NCCS(=O)(=O)N2CCC[C@@H]12`: the GI50 in the assay with SNB-78, with LXFL 529, in the assay with DLD-1, in the assay with M19-MEL, in the assay with DMS-114 and in the assay with RXF 631 was > 100 µM (inactive) each time. Further, in the assay with HOP-18, the GI50 was > 100 µM (inactive).
As for `COCCNC(=O)C1C(=O)C(=O)N(CCOC)C1=O` (configuration not stated), the GI50 with SNB-78, with LXFL 529, in the assay on DLD-1, in the assay with M19-MEL, in the assay with DMS-114 and in the assay on DMS-273 was > 100 µM (inactive) each time. Besides, the GI50 with RXF 631 and in the assay on HOP-18 was > 100 µM (inactive) each time.
For `CC(C)CC(NC(=O)OC(C)(C)C)C(=O)Nc1ccc(Nc2nc(F)nc(-c3c4ccccc4c4n3CCS4)n2)cc1` (configuration not stated), the GI50 in the assay on SNB-78 is 21.2 µM (inactive); with XF498, 25.2 µM (inactive); with LXFL 529 it was 19.5 µM (inactive); in the assay with DLD-1, 20 µM (inactive); with DMS-114, 20.1 µM (inactive); in the assay on DMS-273, 16.9 µM (inactive). In the assay on HOP-18, the GI50 is 24.4 µM (inactive).
Turning to `O=C(O)CCSC(=O)Nc1cccc([N+](=O)[O-])c1`, the GI50 in the assay with SNB-78 is > 100 µM (inactive); in the assay on LXFL 529, > 100 µM (inactive); with DLD-1, 72.1 µM (inactive); in the assay with DMS-114, > 100 µM (inactive); in the assay with DMS-273, > 100 µM (inactive).
On to `COc1ccc2c(c1)CCN1C3=C(CCC3)C(=O)C[C@@H]21`, for which the GI50 in the assay on SNB-78 was > 100 µM (inactive); in the assay on XF498, 15.9 µM (inactive); with LXFL 529, > 100 µM (inactive); in the assay on M19-MEL, > 100 µM (inactive); in the assay on DMS-114 it was 81.7 µM (inactive); in the assay on DMS-273, > 100 µM (inactive). The GI50 in the assay on HOP-18 was > 100 µM (inactive).
With `CSc1ncnc2c1CCN2`, the GI50 with SNB-78, with LXFL 529, in the assay with M19-MEL and in the assay with DMS-114 was > 100 µM (inactive) in each case.
As for `CCOC(=O)C(NC(=O)c1nc[nH]c1[N+](=O)[O-])C(C)C` (configuration not stated), the GI50 with XF498 was 19.9 µM (inactive); in the assay on LXFL 529, 74.3 µM (inactive); in the assay on DLD-1 it was 25 µM (inactive); in the assay with M19-MEL, > 100 µM (inactive); with DMS-114 it was > 100 µM (inactive); with DMS-273, 53.6 µM (inactive).
Turning to `O=C(Nc1ccc(Cl)cc1)c1cccc([N+](=O)[O-])c1O`, the GI50 was 4.27 µM (inactive) with SNB-78; 2.64 µM (inactive) in the assay on XF498; 3.1 µM (inactive) in the assay on LXFL 529; 3.18 µM (inactive) in the assay on DLD-1; 2.8 µM (inactive) with M19-MEL; 3.1 µM (inactive) in the assay with DMS-114. Also, the GI50 in the assay with DMS-273 is 3.13 µM (inactive); in the assay with HOP-18, 0.53 µM (active).
With `N#CC(C(=O)CCC(=O)Nc1ccc(Cl)c(Cl)c1)c1ccccc1` (configuration not stated), the GI50 in the assay with SNB-78, with XF498, in the assay on DLD-1, in the assay with M19-MEL, in the assay on DMS-114 and in the assay on DMS-273 was > 100 µM (inactive) in each case. Besides, in the assay on HOP-18, the GI50 was > 100 µM (inactive).
As for `COC(=O)C12C3C4C5(C(=O)OC)C(C1C35C(=O)N(C(C)C)C(C)C)C42C(=O)N(C(C)C)C(C)C` (configuration not stated), the GI50 in the assay on SNB-78 was > 50 µM (inactive); in the assay on LXFL 529, > 50 µM (inactive); in the assay on DLD-1, > 25.6 µM (inactive); in the assay with M19-MEL it was > 47.8 µM (inactive); in the assay with DMS-114, > 29.9 µM (inactive); in the assay on DMS-273, > 30.8 µM (inactive). In the assay on HOP-18, the GI50 is > 50 µM (inactive).
`O=C1CC23CCCCCCCCCCC2(C1)CC(=O)C3` (configuration not stated): the GI50 in the assay with XF498 is 21.5 µM (inactive); with LXFL 529, 23.6 µM (inactive); in the assay on DLD-1, 34 µM (inactive); in the assay on M19-MEL, 20.7 µM (inactive); in the assay on DMS-114, 26.7 µM (inactive); in the assay on DMS-273, 23.1 µM (inactive). Further, the GI50 in the assay with HOP-18 is 24 µM (inactive).
In the case of `COc1cc2c(cc1O)[C@H](C)C(c1ccccc1OC)O2` (some centres not stated), the GI50 in the assay with SNB-78 was 5.78 µM (inactive); with XF498 it was 5.19 µM (inactive); in the assay on LXFL 529 it was 8 µM (inactive); with DLD-1, 4.75 µM (inactive); with M19-MEL it was 3.77 µM (inactive); in the assay with DMS-114, 2.8 µM (inactive). Moreover, the GI50 was 2.67 µM (inactive) in the assay with DMS-273 and > 100 µM (inactive) in the assay on HOP-18.
Regarding `CC(C)C1NC(=O)[C@H](C)OC(=O)[C@@H](C(C)C)NC(=O)[C@@H](C)OC(=O)C(C(C)C)NC(=O)[C@H](C)OC1=O` (some centres not stated), the GI50 was > 100 µM (inactive) in the assay on SNB-78; 94 µM (inactive) in the assay on XF498; > 66.2 µM (inactive) in the assay on LXFL 529; > 59.6 µM (inactive) with DLD-1; > 55.5 µM (inactive) in the assay on M19-MEL; > 63.8 µM (inactive) with DMS-114. The results for the GI50 in the assay on DMS-273 and in the assay with HOP-18 were 59.2 µM (inactive) and > 100 µM (inactive), respectively.
Consider `O=C(Cc1ccccc1F)NC1=C(Cl)C(=O)c2ccccc2C1=O`, for which the GI50 was 0.706 µM (active) in the assay on XF498; 0.405 µM (active) in the assay with LXFL 529; 0.461 µM (active) in the assay on M19-MEL; 0.21 µM (active) in the assay with DMS-114; 1.52 µM (inactive) in the assay on DMS-273; 0.668 µM (active) with HOP-18.
Regarding `CCCN(CCC)C(=O)Cc1c2n(c3ccccc13)CCCc1ccccc1-2`, the GI50 is 12.3 µM (inactive) in the assay on SNB-78; 15.1 µM (inactive) with XF498; 13.6 µM (inactive) in the assay with LXFL 529; 13.6 µM (inactive) with DLD-1; 14.8 µM (inactive) in the assay with M19-MEL; 11.7 µM (inactive) in the assay on DMS-114. Further, the values for the GI50 in the assay with DMS-273 and in the assay with HOP-18 were 11 µM (inactive) and 16.3 µM (inactive), respectively.
With `CC1=C2C(=CO[C@H](C)[C@H]2C)C(O)=C(C(=O)O)C1=O` [CITRININ], the GI50 in the assay on SNB-78 was 11.2 µM (inactive); with XF498, 5.55 µM (inactive); in the assay with DLD-1, 18.2 µM (inactive); in the assay with M19-MEL it was 24.5 µM (inactive); in the assay on DMS-114 it was 11.5 µM (inactive); in the assay on DMS-273, 44 µM (inactive). Moreover, the GI50 in the assay on HOP-18 was 15.2 µM (inactive).
Take `COc1cc2ccc(=O)oc2cc1O` [SCOPOLETIN]: the GI50 is 307 µM (inactive) in the assay on SNB-78; 63.7 µM (inactive) in the assay with XF498; 83.2 µM (inactive) with DLD-1; 72.4 µM (inactive) with M19-MEL; 28.5 µM (inactive) with DMS-114; 36.3 µM (inactive) in the assay with DMS-273. Moreover, in the assay with HOP-18, the GI50 was 150 µM (inactive).
